The text below walks through data of patent US10508086B2 (CANCER RESEARCH TECHNOLOGY LIMITED, priority 2014, dated 2019).

The test has as its target Human Full Length PARG (Homo sapiens (Human), UniProt Q86W56). Put plainly: PARG in vitro enzyme assay (TR-FRET). The test is classed as biochemical. Particulars: read-out: PARG_EC50_ENZYME. How it is done:
PARG In vitro assays were conducted in a total volume of 15 ul in a standard 384 well format. 5 ul of Human Full Length PARG (Produced internally by Astra Zeneca), used at a final reaction concentration of […], was added to 5 ul of Ribosylated PARP substrate (also produced internally by Astra Zeneca) at final reaction concentration of 4.5 nM in assay buffer (50 mM Tris pH7.4, 0.1 mg/ml BSA, 3 mM EDTA, 0.4 mM EGTA, 1 mM DTT, 0.01% Tween 20, 50 mM KCl). The reaction was incubated at room temperature for 10 minutes and then 5 ul detection reagent was added. Detection Reagent consists of 42 nM MAb Anti-6HIS XL665 (CisBio: 61 HISXLB) and 2.25 nM Streptavidin Europium Cryptate (CisBio: 610SAKLB), both at 3× working stock concentrations (final concentrations of 14 nM and 0.75 nM respectively), in a detection buffer of 50 mM Tris pH7.4, BSA at 0.1 mg/ml and KF at 100 mM. Following incubation at room temperature for 60 minutes in the dark, TR-FRET signal was measured at Ex 340 and Em 665 and Em 620. A ratio was calculated as Em665/EM620×104 for each well and used to calculate percent inhibition for test compounds.
(In general: In TR-FRET formats the signal depends on donor and acceptor labels being close together.)

Chain of Human Full Length PARG (Q86W56 whole entry): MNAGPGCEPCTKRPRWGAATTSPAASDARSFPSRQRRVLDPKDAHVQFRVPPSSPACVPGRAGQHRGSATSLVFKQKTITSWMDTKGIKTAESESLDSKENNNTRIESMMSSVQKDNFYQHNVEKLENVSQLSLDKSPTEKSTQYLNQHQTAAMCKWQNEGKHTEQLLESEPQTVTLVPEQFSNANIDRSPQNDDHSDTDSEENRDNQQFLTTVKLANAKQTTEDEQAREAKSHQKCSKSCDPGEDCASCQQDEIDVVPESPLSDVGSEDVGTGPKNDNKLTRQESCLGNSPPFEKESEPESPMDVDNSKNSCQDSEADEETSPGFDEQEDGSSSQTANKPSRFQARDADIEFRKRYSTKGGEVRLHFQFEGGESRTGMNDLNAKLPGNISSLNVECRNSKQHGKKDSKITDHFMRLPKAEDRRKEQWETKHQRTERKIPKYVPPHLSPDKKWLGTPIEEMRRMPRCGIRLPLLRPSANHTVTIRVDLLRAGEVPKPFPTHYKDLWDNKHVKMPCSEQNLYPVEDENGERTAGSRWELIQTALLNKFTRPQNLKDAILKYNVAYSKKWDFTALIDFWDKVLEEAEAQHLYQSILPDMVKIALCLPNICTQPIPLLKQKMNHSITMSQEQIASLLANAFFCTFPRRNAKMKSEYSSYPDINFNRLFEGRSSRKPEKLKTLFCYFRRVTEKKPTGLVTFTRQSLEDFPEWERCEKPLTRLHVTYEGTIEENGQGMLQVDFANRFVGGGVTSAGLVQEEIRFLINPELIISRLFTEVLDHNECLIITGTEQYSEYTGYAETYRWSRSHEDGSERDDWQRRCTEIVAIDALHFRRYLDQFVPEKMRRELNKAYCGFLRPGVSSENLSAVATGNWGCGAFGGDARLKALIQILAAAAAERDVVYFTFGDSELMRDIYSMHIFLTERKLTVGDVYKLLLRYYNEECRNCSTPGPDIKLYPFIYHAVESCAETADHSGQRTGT

With `Cn1c(=O)n(-c2ccc(C=O)s2)c2cc(S(=O)(=O)NC3(C)CC3)ccc21` [Example 54], the EC50 was found to be 9.07 µM.

Turning to `Cn1c(=O)n(CC2CCCCC2)c2ccc(S(=O)(=O)NC3(C)CC3)cc21` [Example 12], the EC50 was found to be 8.29 µM.

Turning to `Cc1nnc(-n2c(=O)[nH]c3ccc(S(=O)(=O)NC4(C)CC4)cc32)o1` [Example 94, N-(1-Methylcyclopropyl)-3-(5-methyl-1,3,4-oxadiazol-2-yl)-2-oxo-1H-benzimidazole-5-sulfonamide], the EC50 came out at 1.46 µM.

Turning to `Cn1c(=O)n(CC2(C)COC2)c2ccc(S(=O)(=O)NC3(C)CC3)cc21` [Example 10], the EC50 turned out to be 8.42 µM.

`Cn1c(=O)n(CC(C)(C)C)c2ccc(S(=O)(=O)NC3(C)CC3)cc21` [Example 15]: the EC50 stood at 6.59 µM.

Take `Cc1nnc(-n2c(=O)n(CC3CCCN(C)C3)c3ccc(S(=O)(=O)NC4(C)CC4)cc32)o1` (stereo not shown) [Example 139]: the EC50 was 1.15 µM.

Turning to `Cn1c(=O)n(Cc2cc(Cl)cc(Cl)c2)c2ccc(S(=O)(=O)NC3(C)CC3)cc21` [Example 48], the EC50 worked out at 7.83 µM.

For the compound `Cn1c(=O)n(CCC2CC2)c2ccc(S(=O)(=O)NC3(C)CC3)cc21` [Example 19], the EC50 came out at 5.36 µM.

Turning to `Cc1ccc(Cn2c(=O)n(C)c3cc(S(=O)(=O)NC4(C)CC4)ccc32)o1` [Example 20], the EC50 is 3.5 µM.

In the case of `Cc1nnc(-n2c(=O)n(C)c3c(F)cc(S(=O)(=O)NC4(C)CC4)cc32)s1` [Example 114, 7-Fluoro-1-methyl-N-(1-methylcyclopropyl)-3-(5-methyl-1,3,4-thiadiazol-2-yl)-2-oxo-benzimidazole-5-sulfonamide], the EC50 was determined as 0.679 µM.

With `Cn1c(=O)n(Cc2cccc(Cl)c2)c2ccc(S(=O)(=O)NC3(C)CC3)cc21` [Example 38], the EC50 came to 5.71 µM.

As to `Cc1nc(C)c(Cn2c(=O)n(-c3ccn(C)n3)c3cc(S(=O)(=O)NC4(C)CC4)ccc32)s1` [Example 96], the EC50 amounted to 7.03 µM.

`Cc1nnc(-n2c(=O)n(C)c3ccc(S(=O)(=O)NC4(C)CC4)cc32)s1` [Example 68]: the EC50 was determined as 0.902 µM.

As to `Cc1nc(C)c(Cn2c(=O)n(-c3cncs3)c3cc(S(=O)(=O)NC4(C)CC4)ccc32)s1` [Example 97], the EC50 is 0.816 µM.

`Cn1c(=O)n(Cc2ccccc2F)c2ccc(S(=O)(=O)NC3(C)CC3)cc21` [Example 40]: the EC50 was determined as 6.3 µM.

Take `Cc1nc(C)c(Cn2c(=O)n(C3=CCCC3)c3cc(S(=O)(=O)NC4(C)CC4)ccc32)s1` [Example 113]: the EC50 amounted to 0.632 µM.

With `CC(=O)c1cn(-c2nnc(C)s2)c2cc(S(=O)(=O)NC3(C)CC3)ccc12` [Example 144, 3-Acetyl-N-(1-methylcyclopropyl)-1-(5-methyl-1,3,4-thiadiazol-2-yl)indole-6-sulfonamide], the EC50 turned out to be 0.595 µM.

For the compound `Cn1c(=O)n(Cc2ccc(F)cc2)c2ccc(S(=O)(=O)NC3(C)CC3)cc21` [Example 42], the EC50 came to 2.35 µM.

`Cc1nc(C)c(Cn2c(=O)n(-c3cccnn3)c3cc(S(=O)(=O)NC4(C)CC4)ccc32)s1` [Example 109]: the EC50 amounted to 0.878 µM.

Consider `CC(=O)NCc1nc2ccc(S(=O)(=O)NC3(C)CC3)cc2n1-c1nnc(C)s1` [Example 124], for which the EC50 was determined as 7.68 µM.

Consider `Cn1c(=O)n(-c2nccs2)c2cc(S(=O)(=O)NC3(C)CC3)ccc21` [Example 53], for which the EC50 came to 2.86 µM.

Regarding `CNC(=O)c1noc(Cn2c(=O)n(C)c3cc(S(=O)(=O)NC4(C)CC4)ccc32)n1` [Example 60], the EC50 is 5.96 µM.

With `CC1CC1Cn1c(=O)n(C)c2cc(S(=O)(=O)NC3(C)CC3)ccc21` (stereo not shown) [Example 8], the EC50 came to 4.51 µM.

As for `C#CCn1c(=O)n(C)c2cc(S(=O)(=O)NC3(C)CC3)ccc21` [Example 17], the EC50 amounted to 4.78 µM.

`Cc1nnc(-n2c(C)nc3ccc(S(=O)(=O)NC4(C)CC4)cc32)s1` [Example 122]: the EC50 is 1.53 µM.

As for `Cn1c(=O)n(CC2(C)CC2)c2ccc(S(=O)(=O)NC3(C)CC3)cc21` [Example 9], the EC50 was 4.04 µM.

For `Cn1nccc1Cn1c(=O)n(C)c2cc(S(=O)(=O)NC3(C)CC3)ccc21` [Example 64], the EC50 is 8.5 µM.

For the compound `CCOC(=O)n1c(=O)n(Cc2ccc(F)cc2)c2ccc(S(=O)(=O)NC3(C)CC3)cc21` [Example 75], the EC50 was 0.925 µM.

As for `Cc1ccccc1C(=O)n1c(=O)n(C)c2ccc(S(=O)(=O)NC3(C)CC3)cc21` [Example 31], the EC50 was 4.91 µM.

Take `Cc1nnc(-n2c(=O)n(CCC(N)=O)c3ccc(S(=O)(=O)NC4(C)CC4)cc32)o1` [Example 151]: the EC50 is 1.16 µM.

On to `CC(=O)Nc1ccc(Cn2c(=O)n(C)c3cc(S(=O)(=O)NC4(C)CC4)ccc32)cc1` [Example 63], for which the EC50 was 4.17 µM.

For the compound `Cn1c(=O)n(Cc2ccc([N+](=O)[O-])o2)c2ccc(S(=O)(=O)NC3(C)CC3)cc21` [Example 62], the EC50 came to 5.9 µM.

As for `Cc1nnc(-n2c(=O)[nH]c3ccc(S(=O)(=O)NC4(C)CC4)cc32)s1` [Example 80, N-(1-Methylcyclopropyl)-3-(5-methyl-1,3,4-thiadiazol-2-yl)-2-oxo-1H-benzimidazole-5-sulfonamide], the EC50 is 0.732 µM.

Take `Cc1ccc(C(=O)n2c(=O)n(C)c3ccc(S(=O)(=O)NC4(C)CC4)cc32)cc1` [Example 29]: the EC50 came out at 4.46 µM.

In the case of `Cc1nc(C)c(Cn2c(=O)n(-c3cnsc3)c3cc(S(=O)(=O)NC4(C)CC4)ccc32)s1` [Example 93], the EC50 is 1.34 µM.

Turning to `Cc1ccc(Cn2c(=O)n(C)c3cc(S(=O)(=O)NC4(C)CC4)ccc32)cc1` [Example 34], the EC50 came to 6.21 µM.

Take `Cn1ccc(Cn2c(=O)n(C)c3cc(S(=O)(=O)NC4(C)CC4)ccc32)n1` [Example 23]: the EC50 worked out at 8.83 µM.

As to `COc1cccc(Cn2c(=O)n(C)c3cc(S(=O)(=O)NC4(C)CC4)ccc32)c1` [Example 36], the EC50 came to 6.17 µM.

Turning to `Cn1c(=O)n(Cc2ccccc2)c2ccc(S(=O)(=O)NC3(C)CC3)cc21` [Example 3], the EC50 came out at 8.28 µM.

In the case of `Cn1c(=O)n(Cc2cccnc2)c2ccc(S(=O)(=O)NC3(C)CC3)cc21` [Example 5], the EC50 came out at 6.76 µM.

Take `CC(=O)OCCn1c(=O)n(C)c2cc(S(=O)(=O)NC3(C)CC3)ccc21` [Example 22]: the EC50 was found to be 9.18 µM.

With `Cn1c(=O)n(-c2ncc(CCC(=O)O)s2)c2cc(S(=O)(=O)NC3(C)CC3)ccc21` [Example 70, 3-[2-[3-Methyl-6-[(1-methylcyclopropyl)sulfamoyl]-2-oxo-benzimidazol-1-yl]thiazol-5-yl]propanoic acid], the EC50 is 0.804 µM.

With `Cn1c(=O)n(-c2ccccc2)c2ccc(S(=O)(=O)NC3(C)CC3)cc21` [Example 57], the EC50 amounted to 5.63 µM.

As for `Cc1nnc(-n2c(CCN)nc3ccc(S(=O)(=O)NC4(C)CC4)cc32)s1` [Example 125], the EC50 stood at 2.56 µM.

Turning to `Cc1nnc(-n2ccc3ccc(S(=O)(=O)NC4(C)CC4)cc32)s1` [Example 115, N-(1-Methylcyclopropyl)-1-(5-methyl-1,3,4-thiadiazol-2-yl)indole-6-sulfonamide], the EC50 was 2.32 µM.

As for `COc1ccccc1Cn1c(=O)n(C)c2cc(S(=O)(=O)NC3(C)CC3)ccc21` [Example 35], the EC50 amounted to 7.69 µM.

`CC(=O)n1c(=O)n(C)c2ccc(S(=O)(=O)NC3(C)CC3)cc21` [Example 24]: the EC50 turned out to be 2.8 µM.

`Cc1cc(C)cc(Cn2c(=O)n(C)c3cc(S(=O)(=O)NC4(C)CC4)ccc32)c1` [Example 49]: the EC50 is 5.07 µM.

`Cc1nnc(-n2c(=O)n(CCN3CCCC3)c3ccc(S(=O)(=O)NC4(C)CC4)cc32)s1` [Example 153]: the EC50 was 1.12 µM.

Consider `COCCn1c(=O)n(-c2nnc(C)o2)c2cc(S(=O)(=O)NC3(C)CC3)ccc21` [Example 134], for which the EC50 came out at 0.91 µM.

With `COc1ccc(Cn2c(=O)n(C)c3cc(S(=O)(=O)NC4(C)CC4)ccc32)cc1` [Example 37], the EC50 amounted to 3.15 µM.

In the case of `CN1CCN(CC(=O)N2CCc3ccc(S(=O)(=O)NC4(C)CC4)cc32)C1=O` [Example 25, N-(1-Methylcyclopropyl)-1-[2-(3-methyl-2-oxo-imidazolidin-1-yl)acetyl]indoline-6-sulfonamide], the EC50 came to 8.92 µM.

Turning to `Cn1c(=O)n(Cc2cccc(F)c2)c2ccc(S(=O)(=O)NC3(C)CC3)cc21` [Example 41], the EC50 came to 5.77 µM.

As for `COc1cc(Cn2c(=O)n(C)c3cc(S(=O)(=O)NC4(C)CC4)ccc32)cc(OC)c1` [Example 50], the EC50 amounted to 4.91 µM.

As for `Cn1c(=O)n(CC2CCCC2)c2ccc(S(=O)(=O)NC3(C)CC3)cc21` [Example 16], the EC50 worked out at 3.39 µM.

In the case of `Cc1nnc(-n2cc(Cc3ccccc3)c3ccc(S(=O)(=O)NC4(C)CC4)cc32)s1` [Example 126, 3-Benzyl-N-(1-methylcyclopropyl)-1-(5-methyl-1,3,4-thiadiazol-2-yl)indole-6-sulfonamide], the EC50 was 4.28 µM.

In the case of `Cn1c(=O)n(C(=O)c2ccccc2)c2cc(S(=O)(=O)NC3(C)CC3)ccc21` [Example 27], the EC50 was 0.925 µM.

For the compound `Cn1c(=O)n(Cc2ccccc2C#N)c2ccc(S(=O)(=O)NC3(C)CC3)cc21` [Example 43], the EC50 stood at 5.25 µM.
